Consider 25 compounds from patent US11498920B2, “4-(1H-imidazol-5-yl)-1H-pyrrolo[2, 3-b] pyridines for use in the treatment of leukaemias, lymphomas and solid tumors” (MASARYKOVA UNIVERZITA, priority 2018, dated 2022).

One assay has as its system primary CLL cells. Nature of the assay: Cytotoxicity, TMRE flow cytometry viability, primary CLL cells (Example II.1). The class given is cell-based. The settings on record: Homo sapiens, CLL cell, 6 hours, TMRE positive cells normalized to control, ratio to PF670462, <1 = higher cytotoxicity than PF670462, read-out: Viability of cells, Compound of formula I (100 μM), relative to PF670462 (100 μM), CLL primary cells. As to the method: (§1) The leukemia and lymphoma-derived cell lines [MEC-1 cell line (derived from chronic lymphocytic leukemia—CLL), Nalm-16 (acute lymphocytic leukemia—ALL), K562 (chronic myeloid leukemia—CML), HL-60 (acute myeloid leukemia—AML), Maver-1 and Mino (mantle cell lymphoma—MCL), BL-41 (Burkitt lymphoma—BL), WSU-NHL (follicular lymphoma—FL), SUDHL (diffuse large B-cell lymphoma—DLBCL)], primary CLL cells and nonmalignant control primary cells were cultured in suspension in flasks under the following conditions: RPMI 1640 medium (Hyclone) supplemented with 10% fetal bovine serum (FBS, Gibco) and 1% penicillin/streptomycin (Life Technologies), 37° C., 5% CO2 and 95% relative humidity, with optimal culture cell density 5×10^6 cells/mL in case of primary cells and 0.5-1×10^6 cells/mL in case of cell lines. The adherent cell lines [A375 (derived from malignant melanoma), MDA-MB-231 and MCF-7 (breast cancer), MIA-PA-CA and PANC1 (pancreatic cancer), PC3 (prostate cancer), OVCAR4 (ovarian cancer) and HEPG2 (hepatocellular carcinoma)] were cultured on plates under the same conditions using RPMI1640 or DMEM medium (Gibco) according to instructions provided by the distributor (DSMZ/ATCC).
(§2) Cytotoxicity of compounds of formula I was tested in two models representative for leukemia (primary CLL cells) and lymphoma (Maver-1 cells). The primary CLL cells and Maver-1 cells (MCL-derived) were incubated with inhibitors at 100 μM concentration or corresponding amount of solvent (DMSO, Sigma Aldrich) as 0.1×10^6 cells/200 μl per well in a 96-well plate. Experiments were performed in technical duplicates. Viability of cells was assessed after 6 hours in case of primary CLL cells and after 24 hours in case of Maver-1 cells.
(§3) Apoptosis-induced reduction of mitochondrial potential is detected as lower TMRE fluorescence. […] Relative values are presented, showing ratio to the effect of PF670462 (as the closest prior art). Relative value <1 indicates a higher cytotoxicity than PF670462.

The test system of assay [1] is Maver-1 cells (mantle cell lymphoma). Kind of assay: Cytotoxicity, TMRE flow cytometry viability, Maver-1 cells (Example II.1). It is filed as cell-based. The following applies: Homo sapiens, Maver1, 24 hours, TMRE positive cells normalized to control, ratio to PF670462, <1 = higher cytotoxicity than PF670462, read-out: Viability of cells, Compound of formula I (100 μM), relative to PF670462 (100 μM), Maver-1 cells (mantle cell lymphoma). As to the method: as §1, §2, §3

As a reminder, the viability is a read-out of living cells in per cent, often relative to untreated cells.

For the compound `CNC(=O)N1CCC(n2cnc(-c3ccc(F)cc3)c2-c2ccnc3[nH]ccc23)CC1` [Preparative Example 71, 4-(4-(4-fluorophenyl)-5-(1H-pyrrolo[2,3-b]pyridin-4-yl)-1H-imidazol-1-yl)-N-methylpiperidine-1-carboxamide], the viability at 100 µM (in the assay on primary CLL cells; in assay [1]) was 87% throughout.

Consider `CC(=O)N[C@H]1CC[C@@H](n2cnc(-c3ccc(F)cc3)c2-c2ccnc3[nH]ccc23)CC1` [Preparative Example 75, N-(cis-4-(4-(4-fluorophenyl)-5-(1H-pyrrolo[2,3-b]pyridin-4-yl)-1H-imidazol-1-yl)cyclohexyl)acetamide], for which the viability at 100 µM with primary CLL cells worked out at 83%; in assay [1], 66%.

Regarding `Fc1ccc(-c2ncn(CCCOC(F)(F)F)c2-c2ccnc3[nH]ccc23)cc1` [Preparative Example 80], the values for the viability at 100 µM (with primary CLL cells; in assay [1]) were 49% and 42%, respectively.

In the case of `Fc1ccc(-c2ncn(Cc3cccs3)c2-c2ccnc3[nH]ccc23)cc1` [Preparative Example 84, 4-(4-(4-fluorophenyl)-1-(thiophen-2-ylmethyl)-1H-imidazol-5-yl)-1H-pyrrolo[2,3-b]pyridine], the viability at 100 µM in the assay with primary CLL cells is 48%; in assay [1], 8%.

With `Fc1ccc(-c2ncn(Cc3ccc(OC(F)(F)F)cc3)c2-c2ccnc3[nH]ccc23)cc1` [Preparative Example 85], the viability at 100 µM in the assay with primary CLL cells worked out at 1%; in assay [1], 4%.

On to `Fc1ccc(-c2ncn(CCc3ccccc3)c2-c2ccnc3[nH]ccc23)cc1` [Preparative Example 87, 4-(4-(4-fluorophenyl)-1-phenethyl-1H-imidazol-5-yl)-1H-pyrrolo[2,3-b]pyridine], for which the viability at 100 µM came to 10% in the assay with primary CLL cells and 3% in assay [1].

As for `Fc1ccc(-c2ncn(CC3CCCCC3)c2-c2ccnc3[nH]ccc23)cc1` [Preparative Example 88, 4-(1-(cyclohexylmethyl)-4-(4-fluorophenyl)-1H-imidazol-5-yl)-1H-pyrrolo[2,3-b]pyridine], the viability at 100 µM in the assay on primary CLL cells was determined as 15%; in assay [1], 5%.

As for `CN(C)[C@H]1C[C@@H](Cn2cnc(-c3ccc(F)cc3)c2-c2ccnc3[nH]ccc23)C1` [Preparative Example 89], the viability at 100 µM in the assay on primary CLL cells was 59%; in assay [1] it was 70%.

With `CN(C)[C@H]1CC[C@@H](n2cnc(-c3ccc(F)cc3)c2-c2ccnc3[nH]ccc23)CC1` [Preparative Example 90], the viability at 100 µM stood at 23% in the assay on primary CLL cells and 52% in assay [1].

With `CN(C)CCS(=O)(=O)N[C@H]1CC[C@@H](n2cnc(-c3ccc(F)cc3)c2-c2ccnc3[nH]ccc23)CC1` [Preparative Example 98, 2-(dimethylamino)-N-((1R,4s)-4-(4-(4-fluorophenyl)-5-(1H-pyrrolo[2,3-b]pyridin-4-yl)-1H-imidazol-1-yl)cyclohexyl)ethane-1-sulfonamide], the viability at 100 µM with primary CLL cells amounted to 16%; in assay [1], 3%.

`CN(C)CCCS(=O)(=O)N[C@H]1CC[C@@H](n2cnc(-c3ccc(F)cc3)c2-c2ccnc3[nH]ccc23)CC1` [Preparative Example 100, 3-(dimethylamino)-N-((1R,4s)-4-(4-(4-fluorophenyl)-5-(1H-pyrrolo[2,3-b]pyridin-4-yl)-1H-imidazol-1-yl)cyclohexyl)propane-1-sulfonamide]: the viability at 100 µM was found to be 1% with primary CLL cells and 0% in assay [1].

For the compound `Cc1nc(Cn2cnc(-c3ccc(F)cc3)c2-c2ccnc3[nH]ccc23)cs1` [Preparative Example 108, 4-((4-(4-fluorophenyl)-5-(1H-pyrrolo[2,3-b]pyridin-4-yl)-1H-imidazol-1-yl)methyl)-2-methylthiazole], the results for the viability at 100 µM (with primary CLL cells; in assay [1]) were 74% and 82%, respectively.

Consider `Fc1ccc(-c2ncn(Cc3cc[nH]n3)c2-c2ccnc3[nH]ccc23)cc1` [Preparative Example 109, 4-(1-((1H-pyrazol-3-yl)methyl)-4-(4-fluorophenyl)-1H-imidazol-5-yl)-1H-pyrrolo[2,3-b]pyridine], for which the results for the viability at 100 µM (in the assay on primary CLL cells; in assay [1]) were 87% and 31%, respectively.

In the case of `Fc1ccc(-c2ncn(CC3CNCCO3)c2-c2ccnc3[nH]ccc23)cc1` (centres unmarked) [Preparative Example 114, 2-((4-(4-fluorophenyl)-5-(1H-pyrrolo[2,3-b]pyridin-4-yl)-1H-imidazol-1-yl)methyl)morpholine], the viability at 100 µM in the assay on primary CLL cells was found to be 78%; in assay [1], 27%.

Turning to `CN(C)[C@H]1C[C@H](n2cnc(-c3ccc(F)cc3)c2-c2ccnc3[nH]ccc23)C1` [Preparative Example 124, (1S,3r)-3-(4-(4-fluorophenyl)-5-(1H-pyrrolo[2,3-b]pyridin-4-yl)-1H-imidazol-1-yl)-N,N-dimethylcyclobutan-1-amine], the viability at 100 µM turned out to be 55% in the assay with primary CLL cells and 53% in assay [1].

Take `CN(C)[C@H]1CC[C@H](n2cnc(-c3ccc(F)cc3)c2-c2ccnc3[nH]ccc23)CC1` [Preparative Example 125, (1S,4r)-4-(4-(4-fluorophenyl)-5-(1H-pyrrolo[2,3-b]pyridin-4-yl)-1H-imidazol-1-yl)-N,N-dimethylcyclohexan-1-amine]: the viability at 100 µM was 28% in the assay on primary CLL cells and 26% in assay [1].

On to `CN1CCC(Cn2cnc(-c3ccc(F)cc3)c2-c2ccnc3[nH]ccc23)C1` (centres unmarked) [Preparative Example 129, 4-(4-(4-fluorophenyl)-1-((1-methylpyrrolidin-3-yl)methyl)-1H-imidazol-5-yl)-1H-pyrrolo[2,3-b]pyridine], for which the viability at 100 µM worked out at 78% with primary CLL cells and 86% in assay [1].

As for `Fc1ccc(-c2ncn(C3CCCCC3)c2-c2ccnc3[nH]cc(Br)c23)cc1` [Preparative Example 134, 3-bromo-4-(1-cyclohexyl-4-(4-fluorophenyl)-1H-imidazol-5-yl)-1H-pyrrolo[2,3-b]pyridine], the viability at 100 µM stood at 22% with primary CLL cells and 1% in assay [1].

As for `Fc1ccc(-c2nc(Br)n(C3CCCCC3)c2-c2ccnc3[nH]ccc23)cc1` [Preparative Example 135, 4-(2-bromo-1-cyclohexyl-4-(4-fluorophenyl)-1H-imidazol-5-yl)-1H-pyrrolo[2,3-b]pyridine], the results for the viability at 100 µM (in the assay with primary CLL cells; in assay [1]) were 9% and 0%, respectively.

`CSc1nc(-c2ccc(F)cc2)c(-c2ccnc3[nH]ccc23)n1C1CCCCC1` [Preparative Example 136, 4-(1-cyclohexyl-4-(4-fluorophenyl)-2-(methylthio)-1H-imidazol-5-yl)-1H-pyrrolo[2,3-b]pyridine]: the figures for the viability at 100 µM (with primary CLL cells; in assay [1]) were 47% and 0%, respectively.

`CN1CCC(Cn2cnc(-c3ccc(F)c(Cl)c3)c2-c2ccnc3[nH]ccc23)CC1` [Preparative Example 141, 4-(4-(3-chloro-4-fluorophenyl)-1-((1-methylpiperidin-4-yl)methyl)-1H-imidazol-5-yl)-1H-pyrrolo[2,3-b]pyridine]: the viability at 100 µM with primary CLL cells stood at 43%; in assay [1], 0%.

For `CN(C)[C@H]1CC[C@H](n2cnc(-c3ccc(F)c(Cl)c3)c2-c2ccnc3[nH]ccc23)CC1` [Preparative Example 142, (1R,4r)-4-(4-(3-chloro-4-fluorophenyl)-5-(1H-pyrrolo[2,3-b]pyridin-4-yl)-1H-imidazol-1-yl)-N,N-dimethylcyclohexan-1-amine], the viability at 100 µM in the assay on primary CLL cells is 5%; in assay [1], 0%.

On to `Fc1ccc(-c2ncn(C3CCCCC3)c2-c2ccnc3[nH]cc(Cl)c23)cc1` [Preparative Example 144, 3-chloro-4-(1-cyclohexyl-4-(4-fluorophenyl)-1H-imidazol-5-yl)-1H-pyrrolo[2,3-b]pyridine], for which the results for the viability at 100 µM (in the assay with primary CLL cells; in assay [1]) were 36% and 1%, respectively.

With `CC(c1ccccc1)n1cnc(-c2ccc(F)cc2)c1-c1ccnc2[nH]ccc12` (centres unmarked) [Preparative Example 146, 4-(4-(4-fluorophenyl)-1-(1-phenylethyl)-1H-imidazol-5-yl)-1H-pyrrolo[2,3-b]pyridine], the viability at 100 µM was 16% in the assay with primary CLL cells and 0% in assay [1].

`Fc1ccc(-c2ncn(Cc3c[nH]nn3)c2-c2ccnc3[nH]ccc23)cc1` [Preparative Example 153, 4-(1-((1H-1,2,3-triazol-4-yl)methyl)-4-(4-fluorophenyl)-1H-imidazol-5-yl)-1H-pyrrolo[2,3-b]pyridine]: the viability at 100 µM was 117% in the assay with primary CLL cells and 87% in assay [1].
